According to PubChem BioAssay AID248 (DTP/NCI, 2004):
Several values for one entry are separate records, joined by “and”; a condition that tells them apart may be missing. Equal values may be shown once. Inconclusive results and toxic doses are left out. No stated cut-off is given here; in the data, active means T/C of 150% or more; inactive means T/C below 125%.

Test system: L1210 leukemia ip in BDF1 mice, survival T/C
Test: NCI In Vivo Anticancer Drug Screen. Data for tumor model L1210 Leukemia (intraperitoneal) in B6D2F1 (BDF1) mice
Details: endpoint: mean survival time, higher = longer survival
Outline: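 In this screen, tumor-bearing mice given compound are compared to those given vehicle, and their survival values are reported as a treated-to-control quotient.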

[1] = dose: 100.0 mg/kg/injection, schedule: Q04DX003 (ip), vehicle: saline with Tween-80
[2] = dose: 200.0 mg/kg/injection, schedule: Q04DX003 (ip), vehicle: saline with Tween-80
[3] = dose: 400.0 mg/kg/injection, schedule: Q04DX003 (ip), vehicle: saline with Tween-80
[4] = dose: 100.0 mg/kg/injection, schedule: Q01DX001 (ip), vehicle: saline
[5] = dose: 200.0 mg/kg/injection, schedule: Q01DX001 (ip), vehicle: saline
[6] = dose: 400.0 mg/kg/injection, schedule: Q01DX001 (ip), vehicle: saline
[7] = dose: 100.0 mg/kg/injection, schedule: Q04DX003 (ip), vehicle: Klucel (hydroxypropylcellulose) (HPC)
[8] = dose: 200.0 mg/kg/injection, schedule: Q04DX003 (ip), vehicle: Klucel (hydroxypropylcellulose) (HPC)
[9] = dose: 100.0 mg/kg/injection, schedule: Q01DX001 (ip), vehicle: other
[10] = dose: 200.0 mg/kg/injection, schedule: Q01DX001 (ip), vehicle: other
[11] = dose: 12.5 mg/kg/injection, schedule: Q04DX002 (ip), vehicle: Klucel (hydroxypropylcellulose) (HPC)
[12] = dose: 25.0 mg/kg/injection, schedule: Q04DX002 (ip), vehicle: Klucel (hydroxypropylcellulose) (HPC)
[13] = dose: 100.0 mg/kg/injection, schedule: Q01DX001 (ip), vehicle: carboxymethylcellulose (CMC)
[14] = dose: 200.0 mg/kg/injection, schedule: Q01DX001 (ip), vehicle: carboxymethylcellulose (CMC)
[15] = dose: 400.0 mg/kg/injection, schedule: Q01DX001 (ip), vehicle: carboxymethylcellulose (CMC)

Measured: T/C

CC12CC(C(=O)c3ccccc3)C(C)(C1=O)C(c1ccccc1)=C2c1ccccc1 (centres undefined)
inactive: [1] 96 % of control | [2] 89 % of control | [3] 89 % of control

CC(=O)OC1=C(C)C2=C3OC(=O)C(C)=C3CC[C@@]2(C)CC1
inactive: [4] 97 % of control | [5] 101 % of control | [6] 95 % of control

CC(C)C1CCC(/C=C(\C#N)C2CCC([N+](=O)[O-])CC2)CC1 (centres undefined)
inactive: dose: 100.0 mg/kg/injection, schedule: Q04DX002 (ip), vehicle: other 95 % of control | dose: 200.0 mg/kg/injection, schedule: Q04DX002 (ip), vehicle: other 95 % of control | dose: 400.0 mg/kg/injection, schedule: Q04DX002 (ip), vehicle: other 92 % of control

CN(C)c1ccc(/C=C(\C#N)c2nc3ccccc3[nH]2)cc1
inactive: dose: 100.0 mg/kg/injection, schedule: Q01DX001 (ip), vehicle: Klucel (hydroxypropylcellulose) (HPC) 96 % of control | [7] 91 % of control | dose: 200.0 mg/kg/injection, schedule: Q01DX001 (ip), vehicle: Klucel (hydroxypropylcellulose) (HPC) 99 % of control | [8] 94 % of control | dose: 400.0 mg/kg/injection, schedule: Q01DX001 (ip), vehicle: Klucel (hydroxypropylcellulose) (HPC) 96 % of control | dose: 400.0 mg/kg/injection, schedule: Q04DX003 (ip), vehicle: Klucel (hydroxypropylcellulose) (HPC) 93 % of control

CC(=O)C(Cc1ccc(CC(C(C)=O)C(C)=O)cc1)C(C)=O
inactive: [1] 100 % of control | [2] 91 % of control | [3] 100 % of control

O=c1[nH]c2c(cc1Br)C(Br)C(Br)C=C2 (centres undefined)
inactive: [9] 105 % of control | [10] 108 % of control

CCC1CN2N=Cc3ccccc3C2=N1 (centres undefined)
inactive: dose: 10.0 mg/kg/injection, schedule: Q01DX001 (ip), vehicle: saline 105 % of control | dose: 20.0 mg/kg/injection, schedule: Q01DX001 (ip), vehicle: saline 103 % of control

Cc1cnc(SC(C)(C)C)c(C)c1
inactive: [4] 109 % of control | dose: 100.0 mg/kg/injection, schedule: Q01DX009 (ip), vehicle: saline 100 % of control | dose: 100.0 mg/kg/injection, schedule: Q04DX002 (ip), vehicle: Klucel (hydroxypropylcellulose) (HPC) 98 % of control and 100 % of control | [1] 108 % of control | [5] 107 % of control | dose: 200.0 mg/kg/injection, schedule: Q01DX009 (ip), vehicle: saline 94 % of control and 104 % of control | dose: 200.0 mg/kg/injection, schedule: Q04DX002 (ip), vehicle: Klucel (hydroxypropylcellulose) (HPC) 100 % of control and 106 % of control | [2] 102 % of control | [6] 109 % of control | dose: 400.0 mg/kg/injection, schedule: Q01DX009 (ip), vehicle: saline 100 % of control and 107 % of control | dose: 400.0 mg/kg/injection, schedule: Q04DX002 (ip), vehicle: Klucel (hydroxypropylcellulose) (HPC) 95 % of control and 97 % of control | [3] 91 % of control

COc1cc(C(=O)O/N=C(\N)CCl)cc(OC)c1OC
inactive: dose: 6.25 mg/kg/injection, schedule: Q04DX002 (ip), vehicle: Klucel (hydroxypropylcellulose) (HPC) 92 % of control | [11] 88 % of control | [12] 88 % of control

CCc1ncc(N2C3CCCC2CC(=O)C3)[nH]1
inactive: dose: 75.0 mg/kg/injection, schedule: Q01DX001 (ip), vehicle: saline 98 % of control | dose: 150.0 mg/kg/injection, schedule: Q01DX001 (ip), vehicle: saline 98 % of control

CCOC(=O)n1cccc(C)c1=N
inactive: [13] 102 % of control | [14] 100 % of control | [15] 102 % of control

CNC(=O)OC(C)CN(c1ccccc1)c1ccccc1 (centres undefined)
inactive: dose: 50.0 mg/kg/injection, schedule: Q01DX001 (ip), vehicle: saline 98 % of control | [4] 104 % of control | [5] 98 % of control | [6] 102 % of control

CS(=O)(=O)OCCCCO
inactive: dose: 50.0 mg/kg/injection, schedule: Q01DX001 (ip), vehicle: carboxymethylcellulose (CMC) 88 % of control | [13] 93 % of control | [14] 93 % of control | [15] 90 % of control

CNC(=O)C(CCC(=O)OC)NS(=O)(=O)c1ccc(C)cc1 (centres undefined)
inactive: dose: 100.0 mg/kg/injection, schedule: Q01DX001 (ip), vehicle: saline with Tween-80 100 % of control | dose: 100.0 mg/kg/injection, schedule: Q01DX009 (ip), vehicle: saline with Tween-80 104 % of control | dose: 200.0 mg/kg/injection, schedule: Q01DX001 (ip), vehicle: saline with Tween-80 100 % of control | dose: 200.0 mg/kg/injection, schedule: Q01DX009 (ip), vehicle: saline with Tween-80 96 % of control | dose: 400.0 mg/kg/injection, schedule: Q01DX001 (ip), vehicle: saline with Tween-80 100 % of control | dose: 400.0 mg/kg/injection, schedule: Q01DX009 (ip), vehicle: saline with Tween-80 104 % of control

OC1OC(CCl)C(Cl)C(O)C1O (centres undefined)
inactive: dose: 100.0 mg/kg/injection, schedule: Q04DX003 (ip), vehicle: saline 106 % of control | dose: 200.0 mg/kg/injection, schedule: Q04DX003 (ip), vehicle: saline 101 % of control | dose: 400.0 mg/kg/injection, schedule: Q04DX003 (ip), vehicle: saline 98 % of control

CC1=CC(=N\S(=O)(=O)c2ccccc2)/C(=N/S(=O)(=O)c2ccccc2)C=C1
inactive: [1] 94 % of control | [2] 94 % of control | [3] 92 % of control

O=c1[nH]cnc2ncn(Cc3ccccc3)c12
inactive: [11] 115 % of control | [12] 88 % of control | dose: 50.0 mg/kg/injection, schedule: Q04DX002 (ip), vehicle: Klucel (hydroxypropylcellulose) (HPC) 102 % of control

CC(C)(C)OC(=O)NNC(=O)c1ccc([N+](=O)[O-])cc1
inactive: dose: 4.12 mg/kg/injection, schedule: Q01DX009 (ip), vehicle: Klucel (hydroxypropylcellulose) (HPC) 118 % of control | dose: 4.12 mg/kg/injection, schedule: Q01DX009 (ip), vehicle: saline 92 % of control | dose: 6.25 mg/kg/injection, schedule: Q01DX009 (ip), vehicle: Klucel (hydroxypropylcellulose) (HPC) 124 % of control | dose: 6.25 mg/kg/injection, schedule: Q01DX009 (ip), vehicle: saline 96 % of control | dose: 9.37 mg/kg/injection, schedule: Q01DX009 (ip), vehicle: Klucel (hydroxypropylcellulose) (HPC) 100 % of control | dose: 9.37 mg/kg/injection, schedule: Q01DX009 (ip), vehicle: saline 94 % of control | dose: 35.0 mg/kg/injection, schedule: Q01DX009 (ip), vehicle: saline 121 % of control | dose: 50.0 mg/kg/injection, schedule: Q04DX003 (ip), vehicle: Klucel (hydroxypropylcellulose) (HPC) 96 % of control | dose: 55.0 mg/kg/injection, schedule: Q01DX009 (ip), vehicle: saline 102 % of control | dose: 80.0 mg/kg/injection, schedule: Q01DX009 (ip), vehicle: saline 105 % of control | [9] 102 % of control | [7] 93 % of control | dose: 120.0 mg/kg/injection, schedule: Q01DX009 (ip), vehicle: Klucel (hydroxypropylcellulose) (HPC) 92 % of control | dose: 180.0 mg/kg/injection, schedule: Q01DX009 (ip), vehicle: Klucel (hydroxypropylcellulose) (HPC) 97 % of control | [10] 95 % of control | [8] 91 % of control

BrCC1=CC(c2ccccc2)(c2ccccc2)c2ccccc21
inactive: [1] 89 % of control | [2] 89 % of control | [3] 87 % of control

c1cc(OCC2CO2)ccc1OCC1CO1 (centres undefined)
inactive: [9] 115 % of control | [10] 124 % of control | dose: 400.0 mg/kg/injection, schedule: Q01DX001 (ip), vehicle: other 121 % of control

CCC[CH2][Sn]([Br])([CH2]CCC)[CH2]CCC
inactive: dose: 3.13 mg/kg/injection, schedule: Q01DX009 (ip), vehicle: carboxymethylcellulose (CMC) 93 % of control and 103 % of control | dose: 6.25 mg/kg/injection, schedule: Q01DX009 (ip), vehicle: carboxymethylcellulose (CMC) 103 % of control (2×) and 104 % of control | dose: 6.25 mg/kg/injection, schedule: Q04DX003 (ip), vehicle: carboxymethylcellulose (CMC) 96 % of control | dose: 12.5 mg/kg/injection, schedule: Q01DX009 (ip), vehicle: carboxymethylcellulose (CMC) 93 % of control and 101 % of control and 103 % of control | dose: 12.5 mg/kg/injection, schedule: Q04DX002 (ip), vehicle: carboxymethylcellulose (CMC) 92 % of control and 103 % of control | dose: 12.5 mg/kg/injection, schedule: Q04DX003 (ip), vehicle: carboxymethylcellulose (CMC) 107 % of control | dose: 25.0 mg/kg/injection, schedule: Q04DX002 (ip), vehicle: carboxymethylcellulose (CMC) 93 % of control and 98 % of control
